Source: US6967196B1, “Sulfonamide compounds and uses thereof” (Bristol-Myers Squibb Company, priority 1999, dated 2005)
pIC50: −log10 of the molar value. Where a name gives a salt, the structure may show the parent alone. Read-outs that look alike come from different tables or passages of the source.

Test system: amyloid β production in transfected H4 (human neuroglioma) cells stably expressing APP constructs
Assay: In vitro cell-based assay of inhibitors of amyloid β production (ELISA)
Conditions: amyloid β in medium by ELISA
In short: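 Transfected H4 cells stably expressing wild-type or variant APP were exposed to compounds (initial screen 10-100 μM) for about 16 h. Secreted Aβ in the medium was quantified by sandwich ELISA (C-terminal-specific monoclonal capture, N-terminal-specific polyclonal detection) against an Aβ standard curve; dose-response runs followed for actives.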

[1] = transfected H4 cells stably expressing APP, approximately 16 hours incubation, read-out: ACTIVITY (IC50, inhibition of amyloid β production)
[2] = transfected H4 cells stably expressing APP constructs, approximately 16 hours incubation, read-out: ACTIVITY (IC50, inhibition of amyloid β production)
[3] = transfected H4 cells stably expressing APP, approx. 16 h incubation, read-out: ACTIVITY (IC50, inhibition of amyloid β production)
[4] = transfected H4 cells stably expressing APP, approximately 16 hours incubation, Table B, read-out: ACTIVITY (IC50, inhibition of amyloid β production)
[5] = Homo sapiens, 16 h, transfected H4 cells stably expressing APP, approximately 16 hours incubation, read-out: ACTIVITY (IC50, inhibition of amyloid β production)

In the case of “N-{3-[2-({[(4-chlorophenyl)sulfonyl]-2,5-difluoroanilino}methyl)phenoxy]propyl}-N-methyl-2-phenylcyclopropanecarboxamide [Example 917]”, the pIC50 [1] was under 6.30.
Work on “2-((1R)-1-{[(4-chlorophenyl)sulfonyl]-2,5-difluoroanilino}ethyl)benzyl benzylcarbamate [Example 825]” yielded a pIC50 [1] of 6.30 to 7.00.
“4-chloro-N-{3-[2-(1-{[(4-chlorophenyl)sulfonyl]-2,5-difluoroanilino}ethyl)phenoxy]propyl}-N-methyl-3-nitrobenzenesulfonamide [Example 807]” was tested, and the pIC50 [1] was 6.30 to 7.00.
Work on `CC(C)C[C@H](NC(=O)CCCC[C@@H](C)N(c1cc(Cl)ccc1F)S(=O)(=O)c1ccc(Cl)cc1)C(=O)O` [Example 1263, (R)-4-Chloro-N-(5-chloro-2-fluorophenyl)-N-[6-[N-(S)-[1-(carboxy)-3-methylbutyl]amino]-1-methyl-6-oxohexyl]benzenesulfonamide] yielded a pIC50 [2] of 7.30 to 7.60.
For `C[C@H](CCN1CCC(S(C)(=O)=O)CC1)N(c1cc(Cl)ccc1Cl)S(=O)(=O)c1ccc(Cl)cc1` [Example 1146, 4-chloro-N-(2,5-dichlorophenyl)-N-[3-[(4-methylsulfonyl)-1-piperidinyl]-1(R)-methylpropyl]benzenesulfonamide], the pIC50 [2] was 6.30 to 7.00.
Work on “N-{4-[2-(1-{[(4-chlorophenyl)sulfonyl]-2,5-difluoroanilino}ethyl)phenoxy]butyl}-2-cyclohexyl-N-ethylacetamide [Example 785]” yielded a pIC50 [3] of 6.30 to 7.00.
Compound “N-{3-[2-(1-{[(4-chlorophenyl)sulfonyl]-2,5-difluoroanilino}ethyl)phenoxy]propyl}-3,5-difluorobenzamide [Example 815]” has a pIC50 [1] of 6.30 to 7.00.
In the case of “3-[2-((1R)-1-{[(4-chlorophenyl)sulfonyl]-2,5-difluoroanilino}ethyl)phenyl]propyl benzyl(methyl)carbamate [Example 763]”, the pIC50 [3] was 6.30 to 7.00.
Work on `O=S(=O)(c1ccc(Cl)cc1)N(Cc1ccccc1OCCC[N+]1([O-])CCCCC1)c1ccccc1` [Example 505, 4-Chloro-N-{2-[3-(1-hydroxy-1˜lambda˜5˜piperidin-1-yl)propoxy]benzyl}-N-phenylbenzenesulfonamide] yielded a pIC50 [4] of 6.30 to 7.00.
Compound `C[C@H](CCCNC(=O)Oc1ccccc1)N(c1cc(Cl)ccc1Cl)S(=O)(=O)c1ccc(Cl)cc1` [Example 1154, 4-chloro-N-(2,5-dichlorophenyl)-N-[4-[[(phenoxy)carbonyl]amino]-1-methylbutyl]benzenesulfonamide] has a pIC50 (Homo sapiens, transfected H4 cells stably expressing APP constructs, approximately 16 hours incubation, read-out: ACTIVITY (IC50, inhibition of amyloid β production)) of 6.30 to 7.00.
In the case of “2-((1R)-1-{[(4-chlorophenyl)sulfonyl]-2,5-difluoroanilino}ethyl)-5-fluorobenzyl 2-phenylethylcarbamate [Example 640]”, the pIC50 [3] was 6.30 to 7.00.
“N-{3-[2-(1-{[(4-chlorophenyl)sulfonyl]-2,5-difluoroanilino}ethyl)phenoxy]propyl}-2,3,4-trifluoro-N-methylbenzamide [Example 670]” showed a pIC50 [3] of 6.30 to 7.00.
`O=S(=O)(Cc1ccccc1)N(Cc1ccccc1OCCCN1CCCCC1)c1cc(Cl)ccc1Cl` [Example 261, N-(2,5-dichlorophenyl)(phenyl)-N-{2-[3-(1-piperidinyl)propoxy]benzyl}methanesulfonamide Hydrochloride] was tested, and the pIC50 (Table B, transfected H4 cells stably expressing APP, approximately 16 hours incubation, read-out: ACTIVITY (inhibitory concentration IC50, inhibition of amyloid β production)) was 7.30 to 7.60.
Compound `C[C@H](c1ccc(F)cc1CCCC(=O)O)N(c1cc(F)ccc1F)S(=O)(=O)c1ccc(Cl)cc1` [Example 1068, 4-[2-((1R)-1-{[(4-chlorophenyl)sulfonyl]-2,5-difluoroanilino}ethyl)-5-fluorophenyl]butanoic acid] has a pIC50 [1] of under 6.30.
Work on `COC(=O)[C@H](CC(C)C)NC(=O)CC[C@@H](C)N(c1cc(Cl)ccc1F)S(=O)(=O)c1ccc(Cl)cc1` [Example 538] yielded a pIC50 [4] of 6.30 to 7.00.
With “N-{3-[2-({[(4-chlorophenyl)sulfonyl]-2,5-difluoroanilino}methyl)phenoxy]propyl}-2-methoxy-N-methylbenzamide [Example 775]” the pIC50 [3] was 6.30 to 7.00.
Compound “2-((1R)-1-{[(4-chlorophenyl)sulfonyl]-2,5-difluoroanilino}ethyl)-5-fluorobenzyl 2-methoxyethylcarbamate [Example 729]” has a pIC50 [3] of 6.30 to 7.00.
`C[C@H](c1ccccc1COC(=O)NCc1ccc2c(c1)OCO2)N(c1cc(F)ccc1F)S(=O)(=O)c1ccc(Cl)cc1` [Example 673, 2-((1R)-1-{[(4-chlorophenyl)sulfonyl]-2,5-difluoroanilino}ethyl)benzyl 1,3-benzodioxol-5-ylmethylcarbamate] showed a pIC50 [3] of 6.30 to 7.00.
In the case of `O=S(=O)(c1ccc(Cl)cc1)N(Cc1ccccc1C#CCn1ccnc1)c1cc(F)ccc1F` [Example 1051, 4-chloro-N-(2,5-difluorophenyl)-N-{2-[3-(1H-imidazol-1-yl)-1-propynyl]benzyl}benzenesulfonamide hydrochloride], the pIC50 [5] was under 6.30.
In the case of “N-{2-[2-(1-{[(4-chlorophenyl)sulfonyl]-2,5-difluoroanilino}ethyl)phenoxy]ethyl}-2-ethyl-N-methylhexanamide [Example 793]”, the pIC50 [3] was 6.30 to 7.00.
“2-chloro-N-{3-[2-(1-{[(4-chlorophenyl)sulfonyl]-2,5-difluoroanilino}methyl)phenoxy]propyl}-N-methylbenzamide [Example 774]” showed a pIC50 [3] of 6.30 to 7.00.
For `C[C@H](COC(=O)NCCCn1ccnc1)N(c1cc(F)ccc1F)S(=O)(=O)c1ccc(Cl)cc1` [Example 517, 4-Chloro-N-(2,5-difluorophenyl)-N-[2-[[N′-[3-(1 h-imidazol-1-yl)propylamino]carbonyl]oxy]-(r)-1-methylethyl]benzenesulfonamide], the pIC50 [4] was 6.30 to 7.00.
“2,4,6-trichloro-N-{3-[2-(1-{[(4-chlorophenyl)sulfonyl]-2,5-difluoroanilino}ethyl)phenoxy]propyl}benzamide [Example 728]” gave a pIC50 [3] of 6.30 to 7.00.
Work on `C[C@H](COC(=O)N1CCC[C@H]1CO)N(c1cc(Cl)ccc1Cl)S(=O)(=O)c1ccc(Cl)cc1` [Example 1241] yielded a pIC50 [2] of at least 7.60.
In the case of `O=S(=O)(c1ccc(Cl)cc1)N(Cc1cc(Cl)ccc1C#CCCN1CCCCC1)c1ccccc1` [Example 990, 4-chloro-N-{5-chloro-2-[4-(1-piperidinyl)-1-butynyl]benzyl}-N-phenylbenzenesulfonamide hydrochloride], the pIC50 [5] was under 6.30.
`O=S(=O)(c1ccc(Cl)cc1)N(Cc1ccccc1CCCCN1CCCCC1)c1ccccc1` [Example 981, 4-chloro-N-phenyl-N-{2-[4-(1-piperdinyl)butyl]benzyl}benzenesulfonamide hydrochloride] showed a pIC50 [1] of under 6.30.
Compound `C[C@H](COC(=O)NCCCn1ccnc1)N(c1cc(Cl)ccc1CO)S(=O)(=O)c1ccc(Cl)cc1` [Example 1285] has a pIC50 (Homo sapiens, 16 h, transfected H4 cells expressing APP, approximately 16 hours incubation, read-out: ACTIVITY (IC50, inhibition of amyloid β production)) of at least 7.60.
`CCSCCCc1cc(F)ccc1[C@@H](C)N(c1cc(F)ccc1F)S(=O)(=O)c1ccc(SCC)cc1` [Example 936, N-(2,5-difluorophenyl)-4-(ethylsulfanyl)-N-((1R)-1-{2-[3-(ethylsulfanyl)propyl]-4-fluorophenyl}ethyl)benzenesulfonamide] was tested, and the pIC50 [5] was under 6.30.
“3-((4R)-4-{[(4-chlorophenyl)sulfonyl]-2,5-difluoroanilino}-7-fluoro-1,2,3,4-tetrahydro-1-naphthalenyl)propanoic acid [Example 1007]” was tested, and the pIC50 [1] was under 6.30.
With `O=S(=O)(c1ccc(Cl)cc1)N(Cc1ccccc1OCCCN1CCCCC1)c1ccc(Br)cc1` [Example 988, N-(4-bromophenyl)-4-chloro-N-{2-[3-(1-piperidinyl)propoxy]benzyl}benzenesulfonamide hydrochloride] the pIC50 [5] was under 6.30.
